Laboratory results: paper PMC12785803, “Novel ACE-Inhibitory Peptides from Royal Jelly Proteins: Comprehensive Screening, Mechanistic Insights, and Endothelial Protection” (Foods, 2025)
Like-named read-outs stand apart in the source and are kept apart here.

Experiments:
EA.hy926 cells [1] = assay: SOD activity in H2O2-damaged cells; format: cell-based; conditions: 500 μmol/L H2O2 alone; control 126.15 ± 9.22
Protocol: (§1) The activities of SOD and GSH-Px were assessed as follows. EA.hy926 cells were seeded in 6-well plates at 4 × 10^5 cells per well and cultured overnight. After attachment, the cells were serum-starved in high-glucose DMEM containing 1% FBS for 12 h, and then treated for 24 h with peptide solutions at the indicated concentrations or with captopril. […] After treatment, the cells were washed with ice-cold PBS, lysed on ice, and centrifuged to collect the supernatants. SOD and GSH-Px activities were measured spectrophotometrically at 550 nm and 412 nm, respectively, using a microplate reader. Enzyme activities were calculated, normalized to total protein content, and expressed as U/mg protein.

EA.hy926 cells [2] = assay: GSH-Px activity in H2O2-damaged cells; format: cell-based; conditions: 500 μmol/L H2O2 alone; control 165.92 ± 5.21
Protocol: as §1

EA.hy926 cells [3] = assay: NO level in Ang II-stimulated cells (Griess); format: cell-based; conditions: Ang II 1 μmol/L alone; control 109.8 ± 3.93
Protocol: (§2) To evaluate the effect of the peptide on endothelial function, NO and ET-1 levels were measured in this study. Briefly, EA.hy926 cells were seeded in 6-well plates at a density of 4 × 10^5 cells/well and allowed to adhere overnight. After removing the medium, cells were incubated with 1 μmol/L Ang II for 12 h to induce endothelial dysfunction. Subsequently, the peptide solutions at different concentrations (0.1, 0.2, and 0.4 mg/mL) or the captopril solutions were added, and the cells were incubated for an additional 24 h. For the blank control group, the cells received no treatment. After incubation, the culture supernatants were collected and centrifuged to remove debris. Both NO and ET-1 contents in the supernatants were quantified using commercial kits according to the manufacturer’s protocols. NO content was determined using the Griess reaction (OD = 550 nm), and ET-1 levels were measured via enzyme-linked immunosorbent assay (ELISA) (OD = 450 nm). Absorbance values were recorded at the corresponding wavelengths using a microplate reader (Spark 10M, Tecan, Männedorf, Switzerland).

EA.hy926 cells [4] = assay: ET-1 level in Ang II-stimulated cells (ELISA); format: cell-based; conditions: Ang II 1 μmol/L alone; control 13.82 ± 0.69
Protocol: as §2

EA.hy926 cells [5] = assay: Wound healing assay (Ang II-induced migration); format: cell-based; conditions: Ang II 1 μmol/L alone
Protocol: The effect of peptides on endothelial cell migration was evaluated using a wound healing assay. Briefly, EA.hy926 cells were seeded into 6-well plates and cultured at 37 °C in a humidified atmosphere containing 5% CO2. When the cells reached full confluence, they were treated with 1 μmol/L Ang II for 12 h to induce endothelial dysfunction. Subsequently, a straight scratch was created across the cell monolayer using a sterile 200 μL pipette tip. Detached cells were gently removed by rinsing with PBS, leaving a clear cell-free wound area. To minimize proliferation interference, cells were then incubated in high-glucose DMEM containing 1% FBS, supplemented with different concentrations of the peptides or captopril. Images of the same wound area were captured at 0 h, 6 h, and 24 h using a fluorescence microscope (Axio Observer, Zeiss, Jena, Germany), and the wound area was quantified using ImageJ software (version 1.54g).

ACE [6] = tested on: ACE; design: method as in 4 sources, ref Han et al. [33] ||| ref 45 = [45]; PMID 35323475; doi:10.3390/md20030176; 45. Zheng S.-L. Luo Q.-B. Suo S.-K. Zhao Y.-Q. Chi C.-F. Wang B. Preparation, Identification, Molecular Docking Study and Protective Function on HUVECs of Novel ACE Inhibitory Peptides from Protein Hy ||| ref 36 = [36]; PMID 37888451; doi:10.3390/md21100516; 36. Hu Y.-D. Xi Q.-H. Kong J. Zhao Y.-Q. Chi C.-F. Wang B. Angiotensin-I-Converting Enzyme (ACE)-Inhibitory Peptides from the Collagens of Monkfish ( Lophius litulon ) Swim Bladders: Isolation, Charac ||| ref 46 = [46]; PMID 37944395; doi:10.1016/j.foodchem.2023.137921; 46. Du T. Xu Y. Xu X. Xiong S. Zhang L. Dong B. Huang J. Huang T. Xiao M. Xiong T. ACE Inhibitory Peptides from Enzymatic Hydrolysate of Fermented Black Sesame Seed: Random Forest-Based Optimization; conditions: cited from earlier work
Text: These comparisons support the interaction profile observed for PY ...

ACE [7] = conditions: cited from earlier work
Text: As compared to traditional experiment-based screening approaches for ACE-inhibitory peptides, which are time-consuming and labor-intensive, an in silico strategy that integrates peptidomic analysis with virtual screening has emerged as a more efficient and cost-effective approach for identifying ACE-inhibitory peptides from food resources. For example, in a previous study by our group, a novel ACE-inhibitory peptide, MMDF, was identified from the simulated digest of oyster proteins using a virtual screening pipeline that incorporated bioactivity prediction, physicochemical proper ... || In recent years, the hydrolysates of royal jelly proteins (RJPs) have gained increasing attention due to their broad spectrum of biological activities, including antioxidant, antibacterial, anti-aging, and antihypertensive properties, which are largely attributed to their favorable amino acid composition and sequence characteristics.

[8] = molecular target: T1, Angiotensin-converting enzyme (ACE) (Oryctolagus cuniculus, UniProt P12822); assay: In vitro ACE-inhibitory activity (HHL substrate, HPLC of hippuric acid); format: biochemical; conditions: tested at 0.5 mg/mL, p < 0.05
T1 sequence (P12822 34-1310): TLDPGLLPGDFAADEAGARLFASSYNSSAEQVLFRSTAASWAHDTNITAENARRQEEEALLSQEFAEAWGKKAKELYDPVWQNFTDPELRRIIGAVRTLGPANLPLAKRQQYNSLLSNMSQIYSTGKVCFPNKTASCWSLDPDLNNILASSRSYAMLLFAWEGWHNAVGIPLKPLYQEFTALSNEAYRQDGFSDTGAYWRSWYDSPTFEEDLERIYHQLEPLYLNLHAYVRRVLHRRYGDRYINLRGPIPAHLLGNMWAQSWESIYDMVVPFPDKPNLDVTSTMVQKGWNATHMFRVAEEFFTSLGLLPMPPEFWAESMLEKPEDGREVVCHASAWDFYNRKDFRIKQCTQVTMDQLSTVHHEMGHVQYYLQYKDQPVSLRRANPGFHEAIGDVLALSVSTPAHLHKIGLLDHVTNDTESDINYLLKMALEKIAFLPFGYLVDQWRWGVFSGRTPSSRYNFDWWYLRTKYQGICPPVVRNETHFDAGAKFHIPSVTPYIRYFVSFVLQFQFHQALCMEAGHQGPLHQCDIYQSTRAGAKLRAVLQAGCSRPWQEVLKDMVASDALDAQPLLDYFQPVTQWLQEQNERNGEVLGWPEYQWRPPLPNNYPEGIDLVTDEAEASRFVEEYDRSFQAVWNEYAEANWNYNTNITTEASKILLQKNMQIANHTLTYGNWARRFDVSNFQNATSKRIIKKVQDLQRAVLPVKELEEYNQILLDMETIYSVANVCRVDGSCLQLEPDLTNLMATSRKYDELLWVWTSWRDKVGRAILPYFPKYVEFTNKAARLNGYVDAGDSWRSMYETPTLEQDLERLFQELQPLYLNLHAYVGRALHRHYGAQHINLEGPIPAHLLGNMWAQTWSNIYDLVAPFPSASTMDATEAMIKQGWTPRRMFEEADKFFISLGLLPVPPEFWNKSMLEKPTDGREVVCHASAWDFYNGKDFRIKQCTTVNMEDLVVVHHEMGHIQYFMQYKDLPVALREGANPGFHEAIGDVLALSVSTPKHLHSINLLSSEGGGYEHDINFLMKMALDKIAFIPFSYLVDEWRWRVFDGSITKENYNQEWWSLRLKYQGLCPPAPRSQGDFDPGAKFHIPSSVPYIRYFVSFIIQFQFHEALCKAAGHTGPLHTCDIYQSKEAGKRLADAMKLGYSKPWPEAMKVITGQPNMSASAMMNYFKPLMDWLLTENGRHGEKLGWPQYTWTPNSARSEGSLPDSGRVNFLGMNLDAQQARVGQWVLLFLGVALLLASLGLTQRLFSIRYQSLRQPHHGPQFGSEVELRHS
Protocol: The ACE-inhibitory activity of the peptides was measured according to a previously reported method. Briefly, 50 μL of the peptide solution, prepared in borate buffer (pH 8.3) containing 0.3 mol/L NaCl, was mixed with 100 μL of HHL (5.82 mmol/L) prepared in the same buffer. After incubation at 37 °C for 5 min, the reaction was initiated by adding 15 μL of ACE solution (0.1 U/mL), also prepared in the borate buffer described above. The mixture was then incubated at 37 °C for 30 min and terminated by adding 150 μL of 1 mol/L HCl. For the blank control, the same procedure was performed using 50 μL of the borate buffer instead of the peptide solution.
The released hippuric acid (HA) was quantified using an Elite P3200 high-performance liquid chromatography (HPLC) system (Dalian Elite Analytical Instruments Co., Ltd., Dalian, China) equipped with a C18 reversed-phase column (Waters, Milford, MA, USA; 150 mm × 4.6 mm, 5 μm) at a detection wavelength of 228 nm. The mobile phase consisted of solvent A (water containing 0.05% trifluoroacetic acid) and solvent B (acetonitrile) in a ratio of 75:25 (v/v). […]
The ACE inhibition rate (%) was calculated using the following equation:(1) ACE Inhibitory rate%=Ablank−Asample/Ablank×100 where Ablank is the peak area of HA in the blank control test, and Asample is the peak area of HA in the sample test. […]

ACE [9] = tested on: ACE; design: method as in 3 sources, ref 40 = [40]; PMID 38384691; doi:10.1016/j.fochx.2024.101211; 40. Wei G. Wang T. Li Y. He R. Huang A. Wang X. Identification, Structural Characterization, and Molecular Dynamic Simulation of ACE Inhibitory Peptides in Whey Hydrolysates from Chinese Rushan Cheese ||| ref 41 = [41]; PMID 39250996; doi:10.1016/j.ijbiomac.2024.135469; 41. Wang S. Zhang L. Wang H. Liu J. Hu Y. Tu Z. Angiotensin Converting Enzyme (ACE) Inhibitory Peptide from the Tuna ( Thunnus thynnus ) Muscle: Screening, Interaction Mechanism and Stability Int. J. ||| ref 42 = [42]; PMID 37793525; doi:10.1016/j.ijbiomac.2023.127196; 42. Wang S. Zhang L. Wang H. Hu Z. Xie X. Chen H. Tu Z. Identification of Novel Angiotensin Converting Enzyme (ACE) Inhibitory Peptides from Pacific Saury: In Vivo Antihypertensive Effect and Transpor; conditions: cited from earlier work

## OO [H2O2, hydrogen peroxide]
EA.hy926 cells [1]
  SOD activity: 67.47 ± 9.93 U/mg prot
EA.hy926 cells [2]
  GSH-Px activity: 119.49 ± 3.94 U/mg prot

## Angiotensin II (DRVYIHPF; Angiotensin-2; UniProt P01019 25-32, looked up) [Ang II, used to induce endothelial dysfunction]
EA.hy926 cells [3]
  NO level: 58.95 ± 4.31 μmol/g prot
EA.hy926 cells [4]
  ET-1 content: 15.65 ± 0.83 pg/mg prot
EA.hy926 cells [5]; 6 h, control 35.95 ± 1.08%
  Migration rate: 42.44 ± 2.12%
EA.hy926 cells [5]; 24 h, control 79.33 ± 0.48%
  Migration rate: 89.68 ± 1.47%

## FDGPY [identified from Lophius litulon]
ACE [6]; monkfish swim bladder
  Docking interactions with ACE: interacted with Ala354 and Tyr523 via hydrogen bonding and hydrophobic interactions
ACE [7]; from Lophius litulon
  IC50: 1570 µM

## FDVDRW [RJP-derived peptide; synthesized]
[8]
  ACE-inhibitory activity in vitro (comparison in words): PYPDWSFAK and RPYPDWSF exhibited significantly higher ACE-inhibitory activity in vitro than FDVDRW and QWHDKIF

## FPPDVA
ACE [7]; from tuna dark muscle hydrolysates
  IC50: 87.1 ± 1.02 µM

## ITAPHW [from fermented black sesame seed]
ACE [6]; fermented black sesame seed
  Docking interactions with ACE: strong ACE inhibition due to direct Zn^2+ coordination

## KWEKPF [from Chinese Rushan cheese by-products]
ACE [9]; from Chinese Rushan cheese by-products
  ACE inhibition mode: mixed-type ACE inhibition

## LEPWR [from Pacific saury]
ACE [9]; from Pacific saury
  ACE inhibition mode: mixed-type ACE inhibition

## LTGCP [from tuna (Thunnus thynnus) muscle]
ACE [9]; from tuna (Thunnus thynnus) muscle
  ACE inhibition mode: mixed-type ACE inhibition

## QWHDKIF [RJP-derived peptide; synthesized]
[8]
  ACE-inhibitory activity in vitro (comparison in words): PYPDWSFAK and RPYPDWSF exhibited significantly higher ACE-inhibitory activity in vitro than FDVDRW and QWHDKIF

## SEGPK [identified from Lophius litulon]
ACE [6]; monkfish swim bladder
  Docking interactions with ACE: interacted with Ala354 and Tyr523 via hydrogen bonding and hydrophobic interactions
ACE [7]; from Lophius litulon
  IC50: 1210 µM

## SLPNYHPSPR [from fermented black sesame seed]
ACE [6]; fermented black sesame seed
  Docking interactions with ACE: strong ACE inhibition due to direct Zn^2+ coordination

## SPGPW [identified from Lophius litulon]
ACE [6]; monkfish swim bladder
  Docking interactions with ACE: formed a hydrogen bond with the catalytic residue His387
ACE [7]; from Lophius litulon
  IC50: 1310 µM

## VDRYF [from skipjack tuna muscle]
ACE [6]; skipjack tuna muscle
  Docking interactions with ACE: formed hydrogen bonds with Ala354 and Tyr523 within S1 pocket, respectively
